In patent publication US8691945B2, “Antimicrobial peptides” (Singapore Health Services Pte Ltd., priority 2006, dated 2014):
Where no end group is shown, it is not given here. The star is where a group is joined. Acm = CC(=O)NC*

Tests used:
[1] = test system: Bacillus cereus NCTC 2599; assay: Antimicrobial assay, bacteria growth in liquid broth with serially diluted peptides; assay type: cell-based; conditions: B cereus, NCTC2599; for vLD50: concentration of peptide at which 50% of the viable cells are killed
Protocol: (§1) The bacteria assayed included Escherichia coli ATCC 25922, Staphylococcus aureus ATCC 25923, Pseudomonas aeruginosa ATCC 27853, Bacillus cereus NCTC 2599. Sterile flat-bottom, 96-well tissue culture plates (92096, TPP) was used for assay. The inner surface of microplate cover was treated with 0.05% Triton X-100 in 20% ethanol to prevent condensation of water droplets. Growth kinetics in 96-well microplates was monitored (as turbidity) with the Tecan Genios Plus microplate reader using software Magellan v5.03 and 620-nm filter. Seed culture was monitored on Pharmacia Biotech Ultrospec 2000 UV/Visible spectrophotometer using 600-nm wavelength. Antibacterial activities of the analogs and wild-type hBD3 were determined for E. coli, B. cereus, S. aureus and P. aeruginosa by measuring bacteria growth in liquid broth in the presence of the serially diluted peptides. The LD50 is the concentration of peptide at which 50% of the viable cells are killed.
(§2) The bacteria were grown to mid-logarithmic phase in Mueller-Hinton Broth (MHB) from overnight plate culture. The cell suspension was diluted to OD 0.1 (600 nm, Pharmacia Biotech Ultropec 2000 UV/Visible spectrophotometer) in mixture of 10 mM Pot Phos buffer/MHB (equal volume (PMH). This cell suspension gave a concentration of 10^7 CFU/ml. Colony count was done for confirmation. A 10-fold dilution series of this suspension ranging from 10^7 to 10^1 CFU/ml was made in PMH (in sextuplicate for Staphylococcus aureus ATCC 25923 and Bacillus cereus NCTC 2599; in quadruplicate for Escherichia coli ATCC 25922 and in triplicate for Pseudomonas aeruginosa ATCC 27853). The final volume per well was 200 ul. For negative control well, 200 ul of uninoculated PMH was added.
(§3) LD50, LD90, LD99 and LD99.9 of wild-type hBD3 and its linear analogs were determined against two Gram-negative (E. Coli and P. aeruginosa) and two Gram-positive (B. cereus, S. aureus) (Table 3). See also FIGS. 7(A, B, C and D).

[2] = test system: Escherichia coli ATCC 25922; assay: as above; assay type: cell-based; conditions: E coli, ATCC25922; for vLD50: concentration of peptide at which 50% of the viable cells are killed
Protocol: as §1, §2, §3

[3] = test system: Pseudomonas aeruginosa ATCC 27853; assay: as above; assay type: cell-based; conditions: P aeruginosa, ATCC27853; for vLD50: concentration of peptide at which 50% of the viable cells are killed
Protocol: as §1, §2, §3

[4] = test system: Staphylococcus aureus ATCC 25923; assay: as above; assay type: cell-based; conditions: Staph aureus, ATCC25923; for vLD50: concentration of peptide at which 50% of the viable cells are killed
Protocol: as §1, §2, §3

[5] = test system: E. coli, B. cereus, S. aureus and P. aeruginosa; assay: Antimicrobial assay, statements pooled over the four pathogens; assay type: cell-based; conditions: in comparison with hBD3
Protocol: as §1
The bacteria were grown to mid-logarithmic phase in Mueller-Hinton Broth (MHB) from overnight plate culture. […]
LD50, LD90, LD99 and LD99.9 of wild-type hBD3 and its linear analogs were determined against two Gram-negative (E. Coli and P. aeruginosa) and two Gram-positive (B. cereus, S. aureus) (Table 3). […]

[6] = Molecular hydrophobicity by HPLC-MS retention time, full-length analogs; assay type: physicochemical; design: unit: min; conditions: average of three tries, one value per charged fragment
Protocol: Molecular hydrophobicity of peptides was measured by HPLC-MS at the same experimental conditions, e.g., the same peptide concentration (500 or 100 μg/ml), loading (5 μl) and flow rate of 0.2 ml/min in the same gradient 18-38% of eluant A in 32 min and relatively compared in term of retention time (Rt) of product peak.
In comparison with native hBD3, this series of linear analogs of hBD3 with full-length and 11 net positive charge are structurally homogenous as they are designed and synthesized only by uniform replacement of six bridging cysteine residues in hBD3 with other six residues with different hydrophobicity, e.g., A, S, C(Acm), F, Y and W. These linear analogs provide a well-defined model for testing the effect of overall hydrophobicity, second structure and linearity/or constraint imposed by three disulfide bridges on antibacterial, cytotoxicity and hemolytic activities. We have measured the relative molecular hydrophobicity by HPLC-MS in term of retention time (tR) at 500 ug/ml and 100 ug/ml (Table 2) and overall hydrophobicity were calculated based on the hydrophobicity scale of Wilmley and White and Hopp-Woods Scale, respectively. The change trend of overall hydrophobicity, which is calculated based on two different scale, generally fits well, and the HPLC result matches the calculations very well. The general order for the relative molecular hydrophobicity of peptides is as following: W6>F6>Y6>native hBD3>A6>S6>C(Acm)6. […] In the following sections, we will discuss the effect of overall hydrophobicity of peptide on biological activities.

[7] = Molecular hydrophobicity by RP-HPLC-MS retention time, C-terminus analogs; assay type: physicochemical; conditions: 1 mg/ml; gradient 2-15.5% in 30 mins then 15.5-31% in 3 mins of eluent B (ACN)
Protocol: The overall molecular hydrophobicity of the C-terminus hBD3 analogs were measured by RP-HPLC-MS in terms of retention time at 1 mg/ml (Table 4 and FIG. 14). RP-HPLC is an approach that is commonly employed for such comparisons of peptides or amino acid side chains among antibacterial peptides. Since the stationary phase of C18-modified silica is hydrophobic and the mobile phase (water-acetonitrile) is hydrophilic, longer retention times should be correlated with higher hydrophobicity. The measured order for the molecular hydrophobicity of the peptides is as follows: W2>F2>L2>I2>Y2>V2>C2>H2.

Row | Substance | vLD90 [1] [µg/mL] | vLD99 [1] [µg/mL] | vLD99.9 [1] [µg/mL] | vLD50 [1] [µg/mL] | vLD90 [2] [µg/mL] | vLD99 [2] [µg/mL] | vLD99.9 [2] [µg/mL] | vLD50 [2] [µg/mL] | vLD90 [3] [µg/mL] | vLD99 [3] [µg/mL] | vLD99.9 [3] [µg/mL] | vLD50 [3] [µg/mL] | vLD90 [4] [µg/mL] | vLD99 [4] [µg/mL] | vLD99.9 [4] [µg/mL] | vLD50 [4] [µg/mL] | Overall hydrophobicity in terms of ACN % of peak [7] [%] | Overall hydrophobicity in terms of Retention time (UV peak) [7] [min] | also measured
1 | GIINTLQKYYC(Acm)RVRGGRC(Acm)AVLSC(Acm)LPKEEQIGKC(Acm)STRGRKC(Acm)C(Acm)RRKK-OH [C(Acm)6, GIINTLQKYY C(Acm)6RVRGGR C(Acm)6AVLS C(Acm)6LPKEEQIGK C(Acm)6STRGRK C(Acm)6C(Acm)6RRKK] | 28.3 | 47.8 | 49.8 | 19.6 | 23.8 | 24.9 | 42 | 18.7 | 21.7 | 24.7 | 25 | 11.2 | 46.8 | 91 | >100 | 25 | – | – | antibacterial potency in words [5]: relatively less potency; Relative hydrophobicity in term of retention time (Rt) in HPLC-MS, Average ([6]; 100 ug/ml): 20.94; Relative hydrophobicity in term of retention time (Rt) in HPLC-MS, Average ([6]; 500 ug/ml, fragment m/z 799.3): 20.12; Relative hydrophobicity in term of retention time (Rt) in HPLC-MS, Average ([6]; 500 ug/ml, fragment m/z 932.4): 20.15; Relative hydrophobicity in term of retention time (Rt) in HPLC-MS, Average ([6]; 500 ug/ml, fragment m/z 1118.8): 20.11
2 | GIINTLQKYYCRVRGGRCAVLSCLPKEEQIGKCSTRGRKCCRRKK (disulfide (positions not given here); also: three disulfide bonds, pairing not given here; listed as Homo sapiens) [whbd3, wild type human β-defensin 3 with three disulfide bonds, used as control, reference compound] | 5.8 | 6.2 | 6.2 | 3.9 | 11.8 | 12.4 | 12.5 | 9.3 | 5.7 | 11.4 | 12.4 | 2.7 | 10.7 | 12.2 | 12.5 | 5.5 | – | – | Relative hydrophobicity in term of retention time (Rt) in HPLC-MS, Average ([6]; 100 ug/ml, listed as Wild-type hBD3, fragment m/z 860.2): 24.28; Relative hydrophobicity in term of retention time (Rt) in HPLC-MS, Average ([6]; 100 ug/ml, listed as Wild-type hBD3, fragment m/z 1032.2): 24.29; Relative hydrophobicity in term of retention time (Rt) in HPLC-MS, Average ([6]; 500 ug/ml, listed as Wild-type hBD3, fragment m/z 860.2): 23.24; Relative hydrophobicity in term of retention time (Rt) in HPLC-MS, Average ([6]; 500 ug/ml, listed as Wild-type hBD3, fragment m/z 1032.2): 23.28
3 | RGRKC(Acm)C(Acm)RRKK [Peptide C2, 10-residue C-terminus fragment analog of hBD3] | – | – | – | – | – | – | – | – | – | – | – | – | – | – | – | – | 9.67 | 17.05 | –
4 | RGRKFFRRKK (10 aa hBD3 derived peptide (C terminus), C replaced with F) [Peptide F2, 10-residue C-terminus fragment analog of hBD3] | – | – | – | – | – | – | – | – | – | – | – | – | – | – | – | – | 14.78 | 28.41 | –
5 | RGRKHHRRKK (10 aa hBD3 derived peptide (C terminus), C replaced with H) [Peptide H2, 10-residue C-terminus fragment analog of hBD3] | – | – | – | – | – | – | – | – | – | – | – | – | – | – | – | – | 7.15 | 11.45 | –
6 | RGRKIIRRKK (10 aa hBD3 derived peptide (C terminus), C replaced with I) [Peptide I2, 10-residue C-terminus fragment analog of hBD3] | – | – | – | – | – | – | – | – | – | – | – | – | – | – | – | – | 11.96 | 22.13 | –
